The values that follow come from patent US12427196B2, “Macromolecular prodrugs for light-emitting diodes and uses thereof” (Children's Medical Center Corporation, priority 2020, dated 2025).

The test system of series [1] is rat footpad. As to the kind of experiment: Phototriggered local anesthesia (nerve block) after rat footpad injection, Touch Test neurobehavioral testing. In kind it is in vivo. The note with it: irradiance 0 W/cm^2, irradiation duration 0 min (no irradiation). As to the method: The effectiveness of light-triggered anesthesia using P407-CM-T was assessed in vivo after footpad injection in the rat (Table 1);^17, 28-32 this model was selected because it was anticipated that 400 nm light would not penetrate deeply into tissue.^33
A hundred microliters of 20 wt % P407-CM-T were injected into the plantar aspect of the rat hind paw. […] Irradiation of the site of administration immediately after injection with a 400 nm LED at 200 mW/cm^2 for two minutes caused local anesthesia lasting 19.5±4.5 min (FIGS. 5A-5B). Local anesthesia was prolonged to 36.5±8.9 min (FIG. 5B) by increasing the irradiance to 300 mW/cm^2 also for 2 minutes (p<0.05 compared to 200 mW/cm^2). Extending the irradiation time to five minutes at 300 mW/cm^2 further extended local anesthesia to 66.7±24 min (p<0.05 compared to 300 mW/cm^2 for 2 min, FIG. 5B).
It would be important for a light-triggerable local anesthetic system to be triggered repeatedly, so as to be able to treat pain over an extended period. To assess the ability of P407-CM-T to provide repeated on-demand local anesthesia, animals were injected in the footpad with 0.1 mL of 20 wt % P407-CM-T (FIG. 4D). […] The animal was then irradiated at the site of injection with 400 nm light at 300 mW/cm^2 for 2 min. […]

For series [2], the system named is C2C12 cells. As to the kind of experiment: Cytotoxicity, MTS cell proliferation assay. The class given is cell-based. The note with it: 24 h. As to the method: (§1) Before testing the material in vivo, test materials were evaluated in vitro with C2C12 and PC12 cells to assess cytotoxicity to muscle and nerve cells respectively. Different compounds were directly added into the cell culture media (1 mg/mL, 0.33 mg/mL and 0.11 mg/mL) and incubated in the media bathing the cells (i.e. in direct contact with them) in conventional cell culture wells. After 24 h, cell viabilities were evaluated with the MTS assay, and their survival expressed as percentages of results in untreated cells. […] Due to the high molecular weight of the polymer-containing samples, their molar concentrations were perforce lower than that of the small molecule tetracaine. It would not be practical to culture cells in media containing the polymer concentration to be used in vivo (20 wt %), which would be very viscous. Therefore, test materials were placed in Transwell® inserts such that they were in continuity with the cell culture media.
(§2) Cytotoxicity analysis. For the “direct contact” experiments, the cells were incubated in 48-well plates with concentration of formulations of 1, 0.33, 0.11 mg/mL in the media for all samples. For the “indirect contact” experiments, the cells were incubated in 24-well plates with a transwell in each well, in which 50 μL of tetracaine (0.5% wt %) or P407 (20% wt %) or P407-CM-T (20% wt %) was applied. After 24 h, the cell viabilities were evaluated with MTS assay as percentages of the control.

The test system of series [3] is PC12 cells. Kind of series: Cytotoxicity, MTS cell proliferation assay. The class given is cell-based. The note with it: 24 h. As to the method: as §1, §2
In general terms: Tetrazolium dyes change colour on reduction, which living cells bring about.

The structures appear in SMILES notation.

`CCCCNc1ccc(C(=O)OCCN(C)C)cc1` [Tetracaine, tetracaine]: the “Duration of Block” value in series [1] is recorded as 28.6 ± 7.1 min. Also, the “Cell viability (MTS)” value is recorded as “greatly reduced cell survival” in series [2] (C2C12, Transwell inserts, tetracaine 0.5% wt %, P407 20% wt %, P407-CM-T 20% wt %) and “greatly reduced cell survival” in series [3] (PC12, Transwell inserts, tetracaine 0.5% wt %, P407 20% wt %, P407-CM-T 20% wt %). Further, the “Cytotoxicity (cell survival, MTS)” value was “high cytotoxicity” in series [2] (C2C12, direct contact, 1, 0.33 and 0.11 mg/mL in media); “high cytotoxicity” in series [3] (PC12, direct contact, 1, 0.33 and 0.11 mg/mL in media).
